Consider 9 compounds from patent US9937235B2, “Lipidated peptides as anti-obesity agents” (USTAV ORGANICKE CHEMIE A BIOCHEMIE AKADEMIE VED CR, V.V.I, priority 2012, dated 2018).

Where a SMILES comes first, the peptide text is derived from it. Where no end group is shown, it is not given here. [ ]: non-standard residue; d: D form. The star is where a group is joined. Phe(3,4-Cl2) = N[C@@H](Cc1ccc(Cl)c(Cl)c1)C(=O)O; Stearoyl = CCCCCCCCCCCCCCCCCC(=O)*; Myristoyl = CCCCCCCCCCCCCC(=O)*; Lauroyl = CCCCCCCCCCCC(=O)*; Nle = CCCC[C@H](N)C(=O)O; Octanoyl = CCCCCCCC(=O)*

The test system of the experiment is fasted C57BL/6 mice. Nature of the experiment: Food intake in fasted mice after SC administration. The conditions noted are these: fasted C57BL/6 mice, 5 mg/kg SC, 45 min. It is filed as in vivo, mouse. The protocol: Male C57BL/6 mice (An Lab, Prague 4) were bred in the accredited animal facility in the Institute of Organic Chemistry and Biochemistry, Czech Academy of Sciences, Prague, at the Institute of Molecular Genetics, Prague 4, at the temperature of 22±2° C. with access to food and water ad libitum. The day/night cycle was 12/12 hours (light turned on at 6:00 am). Animals were treated according to the Animal Protection Act (Act No. 246/1992). The males were fed standard chow diet St-1 (Mlýn Kocanda, Praha, Czech Republic) which contained 66% saccharides, 25% proteins and 9% lipids with a caloric value of 3.4 kcal/g.
The food was withdrawn 17 hours prior to injection of lipidated peptide and free access to water was maintained. The administration of saline, PrRP or lipidated analogs was performed either by SC injection at doses of 1-10 mg/kg (volume 0.2 ml/mouse), or by ICV using infusion pump (cannulae were inserted into the third brain ventricle 4 days before the experiment following the procedure of Maixnerová et al. (Maixnerová et al., 2011)). The single dose of peptide was 4 nmol/mouse (5 μl/mouse).
Fifteen minutes after the lipidated peptide administration, the mice were given pre-weighed food. The food was then weighed every 30 minutes for 5-10 hours. The administration of every dose was performed at least twice and one group of mice consisted of at least 6 mice. The results were presented as % of food intake as compared with the control group injected with saline.
Statistical evaluation was performed using program Graph-Pad Prism Software (San Diego, Calif., USA), and the one-way ANOVA with a subsequent Dunnettovým post-hoc test. The difference in food intake between mice injected with saline and mice injected with the examined peptide were considered statistically significant at P<0.05.
For `CCCCCCCCCCCCCC(=O)N[C@@H](CO)C(=O)N[C@@H](CCCNC(=N)N)C(=O)N[C@@H](C)C(=O)N[C@@H](Cc1c[nH]cn1)C(=O)N[C@@H](CCC(N)=O)C(=O)N[C@@H](Cc1c[nH]cn1)C(=O)N[C@@H](CO)C(=O)N[C@@H](CCCC)C(=O)N[C@@H](CCC(=O)O)C(=O)N[C@H](C(=O)N[C@@H](CCCNC(=N)N)C(=O)N[C@H](C(=O)N1CCC[C@H]1C(=O)N[C@@H](CC(=O)O)C(=O)N[C@H](C(=O)N[C@@H](CC(N)=O)C(=O)N1CCC[C@H]1C(=O)N[C@@H](C)C(=O)N[C@@H](Cc1c[nH]c2ccccc12)C(=O)N[C@@H](Cc1ccc(O)cc1)C(=O)N[C@H](C(=O)NCC(=O)N[C@@H](CCCNC(=N)N)C(=O)NCC(=O)N[C@H](C(=O)N[C@@H](CCCNC(=N)N)C(=O)N1CCC[C@H]1C(=O)N[C@H](C(=O)NCC(=O)N[C@@H](CCCNC(=N)N)C(=O)N[C@@H](Cc1ccc(Cl)c(Cl)c1)C(N)=O)C(C)C)[C@@H](C)CC)[C@@H](C)O)[C@@H](C)CC)[C@@H](C)O)[C@@H](C)O` [Analog 25] (Myristoyl-SRAHQHS[Nle]ETRTPDINPAWYTGRGIRPVGR[Phe(3,4-Cl2)]-NH2), the “Food intake in mice (5 mg/kg SC) % saline-treated group (45 min)” value stood at 13%. The value for `CCCCCCCCCCCCCC(=O)N[C@@H](CO)C(=O)N[C@@H](CCCNC(=N)N)C(=O)N[C@@H](C)C(=O)N[C@@H](Cc1c[nH]cn1)C(=O)N[C@@H](CCC(N)=O)C(=O)N[C@@H](Cc1c[nH]cn1)C(=O)N[C@@H](CO)C(=O)N[C@@H](CCSC)C(=O)N[C@@H](CCC(=O)O)C(=O)N[C@H](C(=O)N[C@@H](CCCNC(=N)N)C(=O)N[C@H](C(=O)N1CCC[C@H]1C(=O)N[C@@H](CC(=O)O)C(=O)N[C@H](C(=O)N[C@@H](CC(N)=O)C(=O)N1CCC[C@H]1C(=O)N[C@@H](C)C(=O)N[C@@H](Cc1c[nH]c2ccccc12)C(=O)N[C@@H](Cc1ccc(O)cc1)C(=O)N[C@H](C(=O)NCC(=O)N[C@@H](CCCNC(=N)N)C(=O)NCC(=O)N[C@H](C(=O)N[C@@H](CCCNC(=N)N)C(=O)N1CCC[C@H]1C(=O)N[C@H](C(=O)NCC(=O)N[C@@H](CCCNC(=N)N)C(=O)N[C@@H](Cc1ccccc1)C(N)=O)C(C)C)[C@@H](C)CC)[C@@H](C)O)[C@@H](C)CC)[C@@H](C)O)[C@@H](C)O` [Analog 60] (Myristoyl-SRAHQHSMETRTPDINPAWYTGRGIRPVGRF-NH2) was 20%; that for `CCCCCCCCCCCC(=O)N[C@@H](CO)C(=O)N[C@@H](CCCNC(=N)N)C(=O)N[C@@H](C)C(=O)N[C@@H](Cc1c[nH]cn1)C(=O)N[C@@H](CCC(N)=O)C(=O)N[C@@H](Cc1c[nH]cn1)C(=O)N[C@@H](CO)C(=O)N[C@@H](CCCC)C(=O)N[C@@H](CCC(=O)O)C(=O)N[C@H](C(=O)N[C@@H](CCCNC(=N)N)C(=O)N[C@H](C(=O)N1CCC[C@H]1C(=O)N[C@@H](CC(=O)O)C(=O)N[C@H](C(=O)N[C@@H](CC(N)=O)C(=O)N1CCC[C@H]1C(=O)N[C@@H](C)C(=O)N[C@@H](Cc1c[nH]c2ccccc12)C(=O)N[C@@H](Cc1ccc(O)cc1)C(=O)N[C@H](C(=O)NCC(=O)N[C@@H](CCCNC(=N)N)C(=O)NCC(=O)N[C@H](C(=O)N[C@@H](CCCNC(=N)N)C(=O)N1CCC[C@H]1C(=O)N[C@H](C(=O)NCC(=O)N[C@@H](CCCNC(=N)N)C(=O)N[C@@H](Cc1ccccc1)C(N)=O)C(C)C)[C@@H](C)CC)[C@@H](C)O)[C@@H](C)CC)[C@@H](C)O)[C@@H](C)O` [Analog 17] (Lauroyl-SRAHQHS[Nle]ETRTPDINPAWYTGRGIRPVGRF-NH2) was 22%. For the compound `CCCCCCCC(=O)N[C@@H](CO)C(=O)N[C@@H](CCCNC(=N)N)C(=O)N[C@@H](C)C(=O)N[C@@H](Cc1c[nH]cn1)C(=O)N[C@@H](CCC(N)=O)C(=O)N[C@@H](Cc1c[nH]cn1)C(=O)N[C@@H](CO)C(=O)N[C@@H](CCCC)C(=O)N[C@@H](CCC(=O)O)C(=O)N[C@H](C(=O)N[C@@H](CCCNC(=N)N)C(=O)N[C@H](C(=O)N1CCC[C@H]1C(=O)N[C@@H](CC(=O)O)C(=O)N[C@H](C(=O)N[C@@H](CC(N)=O)C(=O)N1CCC[C@H]1C(=O)N[C@@H](C)C(=O)N[C@@H](Cc1c[nH]c2ccccc12)C(=O)N[C@@H](Cc1ccc(O)cc1)C(=O)N[C@H](C(=O)NCC(=O)N[C@@H](CCCNC(=N)N)C(=O)NCC(=O)N[C@H](C(=O)N[C@@H](CCCNC(=N)N)C(=O)N1CCC[C@H]1C(=O)N[C@H](C(=O)NCC(=O)N[C@@H](CCCNC(=N)N)C(=O)N[C@@H](Cc1ccccc1)C(N)=O)C(C)C)[C@@H](C)CC)[C@@H](C)O)[C@@H](C)CC)[C@@H](C)O)[C@@H](C)O` [Analog 15] (Octanoyl-SRAHQHS[Nle]ETRTPDINPAWYTGRGIRPVGRF-NH2), the “Food intake in mice (5 mg/kg SC) % saline-treated group (45 min)” value worked out at 94%. Then `CCCCCCCCCCCCCCCCCC(=O)N[C@@H](CO)C(=O)N[C@@H](CCCNC(=N)N)C(=O)N[C@@H](C)C(=O)N[C@@H](Cc1c[nH]cn1)C(=O)N[C@@H](CCC(N)=O)C(=O)N[C@@H](Cc1c[nH]cn1)C(=O)N[C@@H](CO)C(=O)N[C@@H](CCCC)C(=O)N[C@@H](CCC(=O)O)C(=O)N[C@H](C(=O)N[C@@H](CCCNC(=N)N)C(=O)N[C@H](C(=O)N1CCC[C@H]1C(=O)N[C@@H](CC(=O)O)C(=O)N[C@H](C(=O)N[C@@H](CC(N)=O)C(=O)N1CCC[C@H]1C(=O)N[C@@H](C)C(=O)N[C@@H](Cc1c[nH]c2ccccc12)C(=O)N[C@@H](Cc1ccc(O)cc1)C(=O)N[C@H](C(=O)NCC(=O)N[C@@H](CCCNC(=N)N)C(=O)NCC(=O)N[C@H](C(=O)N[C@@H](CCCNC(=N)N)C(=O)N1CCC[C@H]1C(=O)N[C@H](C(=O)NCC(=O)N[C@@H](CCCNC(=N)N)C(=O)N[C@@H](Cc1ccccc1)C(N)=O)C(C)C)[C@@H](C)CC)[C@@H](C)O)[C@@H](C)CC)[C@@H](C)O)[C@@H](C)O` [Analog 20] (Stearoyl-SRAHQHS[Nle]ETRTPDINPAWYTGRGIRPVGRF-NH2), with 3.5%; and `CCCCCCCCCCCCCC(=O)N[C@H](Cc1ccccc1)C(=O)N[C@H](CCCNC(=N)N)C(=O)NCC(=O)N[C@H](C(=O)N1CCC[C@H]1C(=O)N[C@@H](CCCNC(=N)N)C(=O)N[C@H](C(=O)NCC(=O)N[C@@H](CCCNC(=N)N)C(=O)NCC(=O)N[C@H](C(=O)N[C@@H](Cc1ccc(O)cc1)C(=O)N[C@@H](Cc1c[nH]c2ccccc12)C(=O)N[C@@H](C)C(=O)N1CCC[C@H]1C(=O)N[C@@H](CC(N)=O)C(=O)N[C@H](C(=O)N[C@@H](CC(=O)O)C(=O)N1CCC[C@H]1C(=O)N[C@H](C(N)=O)[C@@H](C)O)[C@@H](C)CC)[C@@H](C)O)[C@@H](C)CC)C(C)C` [Analog 37] (Myristoyl-[dF][dR]GVPRIGRGTYWAPNIDPT-NH2), with 100%; and TPDINPAWYASRGIRPVGRF-NH2 [Analog 51], with 100%. Then `CCCCCCCCCCCCCC(=O)N[C@@H](CO)C(=O)N[C@@H](Cc1c[nH]cn1)C(=O)N[C@@H](CCC(N)=O)C(=O)N[C@@H](CCCNC(=N)N)C(=O)N1CCC[C@H]1C(=O)N[C@@H](C)C(=O)N[C@@H](CC(=O)O)C(=O)N[C@H](C(=O)N[C@@H](Cc1c[nH]cn1)C(=O)N[C@@H](Cc1c[nH]c2ccccc12)C(=O)N[C@@H](Cc1ccc(O)cc1)C(=O)N1CCC[C@H]1C(=O)N[C@@H](CCCNC(=N)N)C(=O)NCC(=O)N[C@@H](CCCC)C(=O)N[C@@H](Cc1ccccc1)C(=O)N1CCC[C@H]1C(=O)N[C@H](C(=O)N[C@H](C(=O)NCC(=O)N[C@@H](CCCNC(=N)N)C(=O)N[C@H](C(=O)N[C@H](C(=O)N[C@@H](C)C(=O)N[C@@H](CCCNC(=N)N)C(=O)N[C@@H](CC(N)=O)C(=O)NCC(=O)N[C@@H](CCC(=O)O)C(=O)N[C@H](C(=O)N[C@@H](CO)C(=O)N[C@@H](CCCNC(=N)N)C(=O)O)C(C)C)[C@@H](C)O)[C@@H](C)CC)[C@@H](C)CC)[C@@H](C)O)[C@@H](C)O` [Analog 31] (Myristoyl-SHQRPADTHWYPRG[Nle]FPTIGRITARNGEVSR-OH; C-terminus assumed), with 100%.

Regarding `CCCCCCCCCCCCCCCC(=O)N[C@@H](CO)C(=O)N[C@@H](CCCNC(=N)N)C(=O)N[C@H](C(=O)N[C@@H](Cc1c[nH]cn1)C(=O)N[C@@H](CCCNC(=N)N)C(=O)N[C@@H](Cc1c[nH]cn1)C(=O)N[C@@H](CO)C(=O)N[C@@H](CCSC)C(=O)N[C@@H](CCC(=O)O)C(=O)N[C@H](C(=O)N[C@@H](CCCNC(=N)N)C(=O)N[C@H](C(=O)N1CCC[C@H]1C(=O)N[C@@H](CC(=O)O)C(=O)N[C@H](C(=O)N[C@@H](CC(N)=O)C(=O)N1CCC[C@H]1C(=O)N[C@@H](C)C(=O)N[C@@H](Cc1c[nH]c2ccccc12)C(=O)N[C@@H](Cc1ccc(O)cc1)C(=O)N[C@@H](C)C(=O)N[C@@H](CO)C(=O)N[C@@H](CCCNC(=N)N)C(=O)NCC(=O)N[C@H](C(=O)N[C@@H](CCCNC(=N)N)C(=O)N1CCC[C@H]1C(=O)N[C@H](C(=O)NCC(=O)N[C@@H](CCCNC(=N)N)C(=O)N[C@@H](Cc1ccccc1)C(N)=O)C(C)C)[C@@H](C)CC)[C@@H](C)CC)[C@@H](C)O)[C@@H](C)CC)[C@@H](C)O` [Analog 57], the “Food intake in mice (5 mg/kg SC) % saline-treated group (45 min)” value is listed as 11%.
